pIC50: −log10 of the molar value.
Assays:
STK3 [1] = target: T1, STK3 (Homo sapiens (Human), UniProt Q13188); assay: ADP-Glo kinase assay, STK3; assay type: biochemical; conditions: ADP-Glo, 50 μM ATP; read-out: STK3 IC50
In short: (§1)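 ADP-Glo readout at 50 μM ATP with 50 ng full-length enzyme: STK4 on 300 μg/mL Axltide substrate, STK3 on 250 μg/mL myelin basic protein. Done as three independent runs in triplicate.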

STK3 [2] = target: T1, STK3; assay: Thermal shift assay (ThermoFluor differential scanning fluorimetry); assay type: binding; conditions: read-out: ΔTm
Protocol: Temperature-dependent protein unfolding profiles were measured using a Real-Time PCR Mx3005p machine (Stratagene: San Diego, CA, USA). Data evaluation and melting temperature calculation were performed using Protein Thermal Shift™ Software v1.2.
To further evaluate binding of these compounds to STK3/4, differential scanning fluorimetry (protein thermal shift using ThermoFluor technology) assay was used to benchmark the capacity to stabilize the kinase domain. The melting temperature (Tm) of STK3 or STK4 was measured in the presence of vehicle (DMSO) or 6, 11 or 23.

STK3 [3] = target: T1, STK3; assay: NanoBRET intracellular kinase assay, STK3; assay type: cell-based
Protocol: (§2) Full-length STK3, STK4, and LRRK2 kinase was cloned in-frame with a C-terminal NanoLuc-fusion (Promega: Madison, WI, USA) and the plasmid was transfected into HEK293T cells using FuGENE HD (Promega, E2312). […] After 2 h at 37° C. in a 5% CO2 atmosphere, NanoBRET NanoGlo Substrate+Extra-cellular NanoLuc Inhibitor (Promega, N2540) was added, and filtered luminescence was measured on a PHERAstar plate reader (BMG Labtech; Ortenberg, Germany) equipped with a lumi-nescence filter pair (450 nm BP filter (donor) and 610 nm LP filter (acceptor)).
(§3) This assay measured the apparent affinity of test compounds by competitive displacement of the NanoBRET™ tracer, reversibly bound to a NanoLuc® luciferase-kinase fusion in cells. To evaluate potential off-target activity of the inhibitors, the inhibition of LRRK2 in live cells by the STK3/4 inhibitors compounds described herein were measured. […] A 50 nM tracer and these compounds were added to cells and incubated for 2 h.

LRRK2 = LRRK2 (Homo sapiens (Human), UniProt Q5S007); assay: NanoBRET intracellular kinase assay, LRRK2; assay type: cell-based; conditions: transfected HEK293 cells, 2 h
Protocol: Full-length STK3, STK4, and LRRK2 kinase was cloned in-frame with a C-terminal NanoLuc-fusion (Promega: Madison, WI, USA) and the plasmid was transfected into HEK293T cells using FuGENE HD (Promega, E2312). After 20 h, transfected cells were mixed with inhibitors and 50 nM NanoBRET Kinase Tracer K10 (Promega) and reseeded at a density of 2× 10^5 cells/mL in Opti-Minimal Essential Medium (MEM) without phenol red (Life Technologies; Carlsbad, CA, USA) in 384-well plates (Greiner 781-207; Kremsmunster, Austria). After 2 h at 37° C. in a 5% CO2 atmosphere, NanoBRET NanoGlo Substrate+Extra-cellular NanoLuc Inhibitor (Promega, N2540) was added, and filtered luminescence was measured on a PHERAstar plate reader (BMG Labtech; Ortenberg, Germany) equipped with a lumi-nescence filter pair (450 nm BP filter (donor) and 610 nm LP filter (acceptor)).
To confirm cellular potency for compounds described herein, the […] were used to detect engagement of STK3 and STK4 in live cells using the NanoBRET™ intracellular kinase assay, marking the first report of a NanoBRET assay for STK3 and STK4. This assay measured the apparent affinity of test compounds by competitive displacement of the NanoBRET™ tracer, reversibly bound to a NanoLuc® luciferase-kinase fusion in cells. To evaluate potential off-target activity of the inhibitors, the inhibition of LRRK2 in live cells by the STK3/4 inhibitors compounds described herein were measured. Cultured HEK293 cells were either transfected with NanoLuc®-STK3 fusion vector, NanoLuc®-STK4 fusion, or with NanoLuc®-LRRK2 vector for 24 h. A 50 nM tracer and these compounds were added to cells and incubated for 2 h. These compounds tested in the assays decreased the NanoBRET™ signal for both STK3 and STK4 at varying potencies and confirming cellular target engagement of STK3/4.

[4] = In vivo plasma and liver concentrations, 20 mg/kg intraperitoneal; conditions: female, C57BL/6J, mouse, ip, 20 mg/kg
Protocol: All animal procedures were approved by the Sanford Burnham Prebys Medical Discovery Institute Institutional Animal Care and Use Committee and were performed according to the NIH guidelines for the Care and Use of Laboratory Animals. Adult female C57BL/6J mice were purchased from Jackson Laboratories and housed with free access to food and water on a 12 h light/dark cycle. Compounds were formulated in 5% DMSO, 10% Tween-80, and 85% H2O and injected intraperitoneally at 10 or 20 mg/kg. Blood samples were collected retro-orbitally at the indicated times and plasma was prepared by centrifugation. Livers were collected post mortem at the indicated times.
For quantification of compound, plasma samples were extracted with acetonitrile: water 4:1 with 0.1% formic acid containing indomethacin as an internal standard. Samples were centrifuged and the supernatants were diluted with acetonitrile: water and analyzed by LC-MS/MS using a Shimadzu Nexera X2 High-performance liquid chromatography (HPLC) (Shimadzu Scientific Instruments: Kyoto, Japan) coupled to an AB Sciex 6500 QTRAP (AB Sciex LLC: Toronto, Canada).
Adult female C57BL/6 mice (n=3/group) were intraperitoneally injected with vehicle or test compound (20 mg/kg), and blood samples and livers were collected at 30 min and 1 h post-injection, respectively. Plasma concentrations of all 13 compounds were >1.4 μM at 30 min after injection, and 10 compounds had liver concentrations >1.0 μM at 1 h after injection, as measured by LC-MS/MS, with particularly high plasma concentrations obtained with compounds 11 (15.9 μM), 16 (11.6 μM) and 105 (8.7 μM) (Table 5). To evaluate target engagement in vivo, the total and phosphorylated MOB1 levels in livers collected at 1 h post-injection was examined.
Tween 80 and water and were administered to mice by intraperitoneal injection. Blood samples and livers were collected at 30 min and 1 h post-dose, respectively. Plasma concentrations and relative pMOB1 levels were determined by LC-MS/MS and western blot analysis, respectively. (n=3).

[5] = tested on: ULK1/2 and Aurora kinases; conditions: including inhibition of ULK1/2 and Aurora kinases; cited from earlier work
STK4 [6] = target: T2, STK4 (Homo sapiens (Human), UniProt Q13043); assay: ADP-Glo kinase assay, STK4; assay type: biochemical
In short: as §1

STK4 [7] = target: T2, STK4; assay: NanoBRET intracellular kinase assay, STK4; assay type: cell-based; conditions: transfected HEK293 cells, 2 h
Protocol: as §2, §3

[8] = tested on: phosphorylated MOB1 (Thr35) in HEK293 cells; assay: Western blot analysis of p-MOB1 in HEK293 cells; assay type: cell-based; conditions: 10 μM, 4 h, then H2O2 50 μM 2 h, vs DMSO
Protocol: Cells were harvested by pipetting, pelleted by centrifugation at 1400 rpm for 4 min, and lysed in RIPA buffer for 10 min at room temperature. The lysates were centrifuged at 12,000×g at room temperature (RT) for 10 min and the supernatants were recovered. Protein concentrations in the supernatants were determined using a BCA assay (Pierce/Thermo Scientific). Proteins were separated on NovexTM WedgeWellTM 4-20% Tris-Glycine Gels (Invitrogen; Carlsbad, CA, USA) and transferred to polyvinylidene difluoride (Trans-Blot® TurboTM Transfer Pack) membranes. […] Danvers. MA. USA). Blots were rinsed three times with TBST and then incubated in 5% nonfat milk containing horseradish peroxidase (HRP)-conjugated mouse anti-rabbit IgG secondary Ab (Cell Signaling Technology) for 1 h at RT. Blots were washed three times with TBST, developed using Pierce® ECL Western Blotting reagent, and imaged and analyzed using with ImageJ software. Quantitative data are expressed as the level of phosphorylated MOB1 normalized to total MOB1. To confirm that the cellular mechanism of action of our inhibitors was through inhibition of Hippo pathway signaling. […] Inhibition of STK3/4 in vitro and in vivo can produce decreased phosphorylation of the Hippo pathway adapter protein MOB1 at […].

[9] = tested on: YAP/TAZ-TEAD activity (8×GTIIC-luciferase) in HEK293 cells; assay: YAP-TAZ-TEAD luciferase assay; assay type: cell-based; conditions: 10 μM, 48 h, vs DMSO
Protocol: 8×GTIIC-luciferase was a gift from Stefano Piccolo (Addgene plasmid #34615, http://n2t.net/addgene: 34615: RRID: Addgene_34615). HEK293 cells were transfected with 8×GTIIC-luciferase plasmid and control Renilla luciferase plasmid using jetPRIME transfection reagent (Polyplus-transfection RSA: New York, NY. USA) for 24 h and cultured in Dulbeco's Modified Eagle Media (DMEM) Glutamax supplemented with 10% Fetal Bovine Serum (FBS), antibiotic/antimycotic, and sodium pyruvate (Gibco. Thermo FisherScientific: Waltham. MA. USA). The transfected cells were treated with 10 μM compound in triplicate and incubated for 48 h at 37° C. Firefly and Renilla luminescence were detected with a Dual-Glo Luciferase Assay System (Promega #E2920) according to the manufacturer's recommendations. The ratio of firefly to Renilla luminescence was calculated for each well and normalized to the ratio in control cells incubated with DMSO.
STK3/4 can negatively regulate the activity of the YAP/TAZ-TEAD protein complex and, accordingly, inactivation of these kinases reduces the transcription of YAP/TAZ-TEAD target genes. […] The results confirmed the intracellular on-target activity of our potent compounds for inhibiting STK3 and STK4 activity and targeting gene expression in the Hippo signaling pathway.

[10] = ADP-Glo, 50 μM ATP, read-out: STK4 IC50
[11] = NanoBRET, transfected HEK293 cells, 2 h, read-out: STK3: IC50

T2 sequence (Q13043 whole entry): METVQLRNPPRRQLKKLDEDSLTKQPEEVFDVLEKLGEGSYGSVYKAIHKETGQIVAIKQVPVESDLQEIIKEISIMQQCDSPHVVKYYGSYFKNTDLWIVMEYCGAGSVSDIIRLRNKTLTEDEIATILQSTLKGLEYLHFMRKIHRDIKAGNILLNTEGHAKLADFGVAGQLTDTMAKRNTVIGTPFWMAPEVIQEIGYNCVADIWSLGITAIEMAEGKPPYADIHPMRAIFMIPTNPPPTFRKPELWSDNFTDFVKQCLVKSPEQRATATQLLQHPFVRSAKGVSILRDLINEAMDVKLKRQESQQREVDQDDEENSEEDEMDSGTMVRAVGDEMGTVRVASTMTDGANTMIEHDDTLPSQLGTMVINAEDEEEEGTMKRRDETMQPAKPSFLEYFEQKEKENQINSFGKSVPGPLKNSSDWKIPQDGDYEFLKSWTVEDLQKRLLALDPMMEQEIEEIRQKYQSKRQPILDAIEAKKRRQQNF
T1 sequence (Q13188 whole entry): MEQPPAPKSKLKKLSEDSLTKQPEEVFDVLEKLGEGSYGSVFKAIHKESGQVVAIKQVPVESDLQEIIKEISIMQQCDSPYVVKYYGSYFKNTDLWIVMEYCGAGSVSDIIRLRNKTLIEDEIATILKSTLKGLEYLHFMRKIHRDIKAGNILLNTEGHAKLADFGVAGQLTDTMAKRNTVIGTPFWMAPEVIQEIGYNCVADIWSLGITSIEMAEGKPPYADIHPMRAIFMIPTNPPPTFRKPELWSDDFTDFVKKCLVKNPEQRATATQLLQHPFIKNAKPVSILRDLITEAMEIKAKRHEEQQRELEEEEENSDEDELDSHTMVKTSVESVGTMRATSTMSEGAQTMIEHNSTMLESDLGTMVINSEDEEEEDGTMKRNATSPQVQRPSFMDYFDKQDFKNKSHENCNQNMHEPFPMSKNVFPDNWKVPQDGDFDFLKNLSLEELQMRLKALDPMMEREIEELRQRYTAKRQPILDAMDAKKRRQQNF
Chain of LRRK2 (Q5S007 whole entry, species assumed, the tested form may be a part): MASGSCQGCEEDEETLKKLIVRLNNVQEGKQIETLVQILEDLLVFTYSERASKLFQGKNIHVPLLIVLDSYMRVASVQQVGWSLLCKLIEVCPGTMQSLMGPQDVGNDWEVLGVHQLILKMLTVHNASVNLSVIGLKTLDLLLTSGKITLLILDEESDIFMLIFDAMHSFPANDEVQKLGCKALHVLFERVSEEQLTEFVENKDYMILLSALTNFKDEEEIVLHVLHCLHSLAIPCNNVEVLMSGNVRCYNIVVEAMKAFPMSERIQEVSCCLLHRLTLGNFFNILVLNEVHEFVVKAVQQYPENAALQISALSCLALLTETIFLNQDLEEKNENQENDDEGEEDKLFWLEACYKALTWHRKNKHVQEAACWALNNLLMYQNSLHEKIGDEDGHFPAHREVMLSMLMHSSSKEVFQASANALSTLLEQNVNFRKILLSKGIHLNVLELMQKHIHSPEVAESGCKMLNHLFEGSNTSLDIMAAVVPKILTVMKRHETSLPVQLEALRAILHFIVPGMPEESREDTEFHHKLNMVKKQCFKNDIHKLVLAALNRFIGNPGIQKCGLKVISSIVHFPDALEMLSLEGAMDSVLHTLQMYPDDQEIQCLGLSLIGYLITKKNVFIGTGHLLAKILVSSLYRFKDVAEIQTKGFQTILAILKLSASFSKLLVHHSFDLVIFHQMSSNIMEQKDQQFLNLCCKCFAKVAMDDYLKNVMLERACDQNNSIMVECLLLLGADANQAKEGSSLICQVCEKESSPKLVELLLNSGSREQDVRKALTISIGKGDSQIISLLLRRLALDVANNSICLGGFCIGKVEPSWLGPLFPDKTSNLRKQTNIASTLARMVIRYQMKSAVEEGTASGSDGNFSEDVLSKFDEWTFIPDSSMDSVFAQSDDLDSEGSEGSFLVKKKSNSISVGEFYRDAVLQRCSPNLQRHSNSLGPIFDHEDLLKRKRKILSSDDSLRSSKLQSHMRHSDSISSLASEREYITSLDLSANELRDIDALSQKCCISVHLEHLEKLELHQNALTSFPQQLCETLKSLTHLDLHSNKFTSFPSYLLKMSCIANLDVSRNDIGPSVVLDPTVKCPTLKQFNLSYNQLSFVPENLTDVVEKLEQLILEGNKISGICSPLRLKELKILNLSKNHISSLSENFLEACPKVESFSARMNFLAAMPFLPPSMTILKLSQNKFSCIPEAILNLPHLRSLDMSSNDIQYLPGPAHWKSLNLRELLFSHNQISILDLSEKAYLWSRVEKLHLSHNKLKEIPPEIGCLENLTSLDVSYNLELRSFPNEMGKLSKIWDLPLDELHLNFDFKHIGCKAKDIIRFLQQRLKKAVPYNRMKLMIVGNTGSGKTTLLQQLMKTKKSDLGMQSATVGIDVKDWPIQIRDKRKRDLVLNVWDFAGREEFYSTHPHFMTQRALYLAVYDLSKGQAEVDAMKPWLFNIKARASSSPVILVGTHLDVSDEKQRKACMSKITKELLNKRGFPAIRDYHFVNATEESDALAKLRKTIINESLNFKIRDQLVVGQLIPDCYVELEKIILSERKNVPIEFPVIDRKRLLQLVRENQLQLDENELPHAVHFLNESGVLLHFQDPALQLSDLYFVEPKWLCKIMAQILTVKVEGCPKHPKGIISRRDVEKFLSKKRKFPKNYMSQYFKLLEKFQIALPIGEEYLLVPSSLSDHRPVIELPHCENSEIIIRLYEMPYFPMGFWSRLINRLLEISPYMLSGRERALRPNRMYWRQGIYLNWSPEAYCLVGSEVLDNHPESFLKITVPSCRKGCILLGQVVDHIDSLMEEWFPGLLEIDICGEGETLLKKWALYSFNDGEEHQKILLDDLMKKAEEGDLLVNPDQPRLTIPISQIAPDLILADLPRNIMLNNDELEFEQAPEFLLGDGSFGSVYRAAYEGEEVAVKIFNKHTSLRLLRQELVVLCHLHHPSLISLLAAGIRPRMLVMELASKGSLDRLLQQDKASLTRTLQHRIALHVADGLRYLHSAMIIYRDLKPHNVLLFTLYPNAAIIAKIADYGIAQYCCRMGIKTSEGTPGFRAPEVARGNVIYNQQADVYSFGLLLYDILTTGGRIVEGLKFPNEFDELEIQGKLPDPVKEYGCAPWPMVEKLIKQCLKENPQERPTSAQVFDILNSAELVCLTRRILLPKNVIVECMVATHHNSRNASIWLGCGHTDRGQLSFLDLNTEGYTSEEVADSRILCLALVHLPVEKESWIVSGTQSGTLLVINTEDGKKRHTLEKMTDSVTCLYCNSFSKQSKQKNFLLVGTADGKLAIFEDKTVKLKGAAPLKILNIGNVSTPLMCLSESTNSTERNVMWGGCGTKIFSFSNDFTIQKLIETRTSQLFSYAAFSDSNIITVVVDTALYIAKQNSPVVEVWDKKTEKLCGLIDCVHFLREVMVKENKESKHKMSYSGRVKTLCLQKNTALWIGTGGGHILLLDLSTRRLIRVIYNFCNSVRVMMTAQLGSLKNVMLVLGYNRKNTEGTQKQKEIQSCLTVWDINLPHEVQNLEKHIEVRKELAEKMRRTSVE

Clc1cccc(-c2c[nH]c3ncnc(N4CCCCC4)c23)c1 [Compound 15, 5-(3-Chlorophenyl)-4-(piperidin-1-yl)-7H-pyrrolo[2,3-d]pyrimidine]
pIC50 (STK3 [1]): > 6.00 | ΔTm at 10 µM (STK3 [2]): 8.3 °C | pIC50 (STK3 [3]): 5.30 to 6.00 | LRRK2: IC50 (LRRK2): B (B: IC50 is >2000 nM and <1000 nM) | concentration at 30 min [4]: 3.7 µM | concentration at 1 h [4]: 6.5 µM

CNC1CCN(c2ncnc3[nH]cc(-c4cccc(Cl)c4)c23)CC1 [Compound 106, 1-(5-(3-chlorophenyl)-7H-pyrrolo[2,3-d]pyrimidin-4-yl)-N-methylpiperidin-4-amine]
pIC50 (LRRK2): ≤ 5.70 | concentration at 30 min [4]: 2.2 µM | concentration at 1 h [4]: 7.8 µM

CN1C(=O)c2sccc2N(C)c2nc(Nc3ccc(S(N)(=O)=O)cc3)ncc21 [XMU-MP-1]
off-target activity in vitro [5]: notable off-target activity

CN(CCO)c1ncnc2[nH]cc(-c3cccc(Cl)c3)c12 [Compound 108, 2-((5-(3-chlorophenyl)-7H-pyrrolo[2,3-d]pyrimidin-4-yl)(methyl)amino)ethan-1-ol]
pIC50 (STK4 [6]; [10]): > 6.00 | pIC50 (STK3 [1]): > 6.00 | pIC50 (STK3 [3]; [11]): > 6.00 | pIC50 (STK4 [7]): > 6.00 | LRRK2: IC50 (LRRK2): B (B: IC50 is >2000 nM and <1000 nM) | relative expression level of phosphorylated MOB1 [8]: significant reduction | concentration at 30 min [4]: 7.3 µM | concentration at 1 h [4]: 0.9 µM

OCCCNc1ncnc2[nH]cc(-c3cccc(Cl)c3)c12 [Compound 119, 3-((5-(3-chlorophenyl)-7H-pyrrolo[2,3-d]pyrimidin-4-yl)amino)propan-1-ol]
pIC50 (STK3 [1]): > 6.00 | pIC50 (STK3 [3]; [11]): > 6.00 | pIC50 (LRRK2): ≤ 5.70 | concentration at 30 min [4]: 4.5 µM | concentration at 1 h [4]: 0.003 µM

CC(CO)CN(C)c1ncnc2[nH]cc(-c3cccc(Cl)c3)c12 (stereo not shown) [Compound 121, 3-((5-(3-chlorophenyl)-7H-pyrrolo[2,3-d]pyrimidin-4-yl)(methyl)amino)-2-methylpropan-1-ol]
pIC50 (STK4 [6]; [10]): > 6.00 | pIC50 (STK3 [1]): > 6.00 | pIC50 (STK3 [3]; [11]): > 6.00 | pIC50 (STK4 [7]): > 6.00 | pIC50 (LRRK2): ≤ 5.70 | relative expression level of phosphorylated MOB1 [8]: significant reduction | concentration at 30 min [4]: 1.8 µM | concentration at 1 h [4]: 0.006 µM

Cc1cccc(-c2c[nH]c3ncnc(N4CCOCC4)c23)c1 [Compound 5, 4-(5-(m-Tolyl)-7H-pyrrolo[2,3-d]pyrimidin-4-yl)morpholine]
pIC50 (STK3 [1]): > 6.00 | pIC50 (STK3 [3]; [11]): > 6.00 | pIC50 (LRRK2): ≥ 6.00 | concentration at 30 min [4]: 2.8 µM | concentration at 1 h [4]: 7.3 µM

Fc1cccc(-c2c[nH]c3ncnc(N4CCOCC4)c23)c1 [Compound 7, 4-(5-(3-Fluorophenyl)-7H-pyrrolo[2,3-d]pyrimidin-4-yl)morpholine]
pIC50 (STK3 [1]): > 6.00 | ΔTm at 10 µM (STK3 [2]): 8.4 °C | pIC50 (STK3 [3]; [11]): > 6.00 | pIC50 (LRRK2): ≥ 6.00 | YAP/TAZ-TEAD activity (luciferase reporter) [9]: marked increase | concentration at 30 min [4]: 6 µM | concentration at 1 h [4]: 14.9 µM

CC1(N)CCN(c2ncnc3[nH]cc(-c4cccc(Cl)c4)c23)CC1 [Compound 102, 1-(5-(3-chlorophenyl)-7H-pyrrolo[2,3-d]pyrimidin-4-yl)-4-methylpiperidin-4-amine]
pIC50 (STK3 [1]): > 6.00 | concentration at 30 min [4]: 1.4 µM | concentration at 1 h [4]: 15.9 µM

Cc1ccccc1-c1c[nH]c2ncnc(N3CCOCC3)c12 [Compound 2, 4-(5-(o-Tolyl)-7H-pyrrolo[2,3-d]pyrimidin-4-yl)morpholine]
pIC50 (STK4 [6]): 5.30 to 6.00 | pIC50 (STK3 [1]): < 5.30 | relative expression level of phosphorylated MOB1 [8]: significant reduction

Reference: US20250051337A1 (priority 2021, published 2025)
